What all share (format): cell-based
Assay [1] relates to rat thoracic aorta. Briefly: Combined vasorelaxing effects of TAA with GTN or SNP: phenylephrine-induced tension in rat thoracic aorta. The settings on record: 0.1 μM agent alone; control vehicle 2.1 g. The protocol:
The rats were allowed to acclimate in environmentally controlled quarters (20-22° C. with 12:12 hr light-dark cycles). […] After equilibration, the aortic rings were stabilized with a near maximal contraction induced by 0.3 μM phenylephrine. When the rings achieved a stable level of contraction, 3 μM acetylcholine was added to the bath, in which the aorta rings were soaked, to assess endothelial integrity. Intimas were gently frayed with a cotton swab to disrupt the endothelium.

Assay [2] relates to rat thoracic aorta. Briefly: Relaxation of phenylephrine-contracted rat aortic rings in the presence of acetylcholine. The settings on record: 0.3 μM phenylephrine, acetylcholine 3 μM present. The protocol:
Male Sprague-Dawley rats, weighing 250-350 g (Laboratory Animal Science Center of the National Yang-Ming University, Taipei, Taiwan), were used in this study. The rats were allowed to acclimate in environmentally controlled quarters (20-22° C. with 12:12 hr light-dark cycles). Thoracic aorta was excised carefully and fixed isometrically in organ chambers (15 mL) containing a 37° C. modified Krebs' solution (120 mM NaCl, 4.5 mM KCl, 2.5 mM CaCl2, 1 mM MgSO4, 27 mM NaHCO3, 1 mM KH2PO4, 10 mM glucose, pH 7.4) through which a mixture of 95% O2-5% CO2 was continuously supplied. The aortic rings of 3-4 mm were equilibrated under passive tension of 1.8 g for 60 min. After equilibration, the aortic rings were stabilized with a near maximal contraction induced by 0.3 μM phenylephrine. When the rings achieved a stable level of contraction, 3 μM acetylcholine was added to the bath, in which the aorta rings were soaked, to assess endothelial integrity. Intimas were gently frayed with a cotton swab to disrupt the endothelium.
The relaxation effect of TAA on rat thoracic aorta in the presence of acetylcholine was also investigated. Vascular contraction in rat aortic rings was induced by 0.3 μM phenylephrine as described above. Acetylcholine (3 μM) was added to the bath, in which the aortic rings were soaked, to assess endothelial integrity. […]

In assay [3] the test system is rat thoracic aorta. As to the kind of experiment: Vasorelaxing effect on phenylephrine-induced contraction of rat thoracic aortic rings.

For the compound `O=[N+]([O-])OCC(CO[N+](=O)[O-])O[N+](=O)[O-]` [GTN, glyceryltrinitrate], the phenylephrine-induced tension with rat thoracic aorta [1] turned out to be 1.3 g.

Turning to `O=C(O)/C=C(\CC(=O)O)C(=O)O` [TAA, trans-aconitic acid], the increase of relaxation in the assay with rat thoracic aorta [2] (TAA 100 μM, n=16) worked out at 55%. The relaxation levels entry in the assay with rat thoracic aorta [2] (TAA 0.1-100 μM) was “significant increase of relaxation levels”. Besides, the maximum relaxation induced in the assay on rat thoracic aorta [3] (TAA 100 μM, contraction induced by 10 μM phenylephrine, n=16) is given as 40%. Also, the “vasorelaxing effect in rat thoracic aorta” value in the assay on rat thoracic aorta [3] (TAA 100 μM, phenylephrine precontracted aortic rings) was “significant vasorelaxing effect”. Further, the “relaxation in phenylephrine-induced contraction” value in the assay on rat thoracic aorta [3] (endothelium-intact preparations) is “concentration-dependent relaxation”.

The values are drawn from patent US9012512B2, “Aqueous extracts from monocotyledon plants and their use in cardioprotection” (priority 2008, dated 2015).
